Tests used:
[1] = system: Pseudomonas sp. strain LBr glyphosate oxidoreductase; test: Km of glyphosate oxidoreductase from Pseudomonas sp. strain LBr; format: biochemical
Description: Using this PCR approach, glyphosate oxidoreductase genes from a number of sources have been isolated. The presence of the glyphosate oxidoreductase activity was confirmed by cloning the glyphosate oxidoreductase gene from chromosomal DNA prepared from Pseudomonas sp. strain LBr (Jacob et al., 1988) and using primers homologous to the N- and C-termini of the LBAA glyphosate oxidoreductase gene and containing the following suitable restriction cloning sites: 5′-[…] ATG-3′ (SEQ ID NO:13) and 5′-[…] AGTAC-3′ (SEQ ID NO:14). Cyclotherm parameters used for these PCR reactions is as follows: • Denature at 94° C. for 1 minute; • Anneal at 60° C. for 2 minutes; • Polymerize at 72° C. for 3 minutes, • 30 cycles, no autoextension, linked to 4° C. incubation. The expected ˜1.3 kb PCR produced was generated and following digestion with NdeI and HindIII, this fragment was cloned into pMON2123 for expression of the encoded enzyme.

[2] = target: LBAA glyphosate oxidoreductase variant w1v2v3 (SER84, ARG153, ARG334) (Ochrobactrum sp. G-1, UniProt D2KI28, H334R/K153R/S2A); test: Kinetic analysis of domain switches, clone w1v2v3; format: biochemical, bacterial isolate LBAA (Pseudomonas strain LBAA); settings: substrate glyphosate
Method: (§1) The mutagenesis procedure used was that of Mn++-poisoned PCR and the template was a linearized glyphosate oxidoreductase gene plasmid containing the synthetic glyphosate oxidoreductase gene (SEQ ID NO:8). The oligonucleotide primers used were homologous to regions in the vector and flanking the glyphosate oxidoreductase gene. The PCR conditions employed were as follows: 1 minute at 94° C., 2 minutes at 55° C., and 3 minutes at 72° C. and with 35 cycles. A 5:1 ratio of dCTP+dGTP+TTP to dATP was used. The reactions contained MnCl2 at 125, 250, 375, or 500 μM. After the reaction, the amplified product was recloned into a vector containing a weak E. coli promoter. This vector was a pBR327 derivative containing the araBAD promoter and suitable cloning sites. […] Growth rates were determined by measuring A550 over a 96 hour period. […] Protein concentrations were determined using the Bio-Rad protein dye-binding assay. […] Ten minutes was determined to be the optimal time for the enzyme assay using 10 μg lysate. […] Enzyme activity was determined from the amount of glyoxylate-DNPH adduct formed by measuring A520 against a standard of glyoxylate. […] The Km and Vmax were determined from Lineweaver Burk, Eadie-Hofstee and hyperbolic kinetic plots. […]

[3] = target: LBAA glyphosate oxidoreductase variant w1w2v3 (SER84, LYS153, ARG334) (Ochrobactrum sp. G-1, UniProt D2KI28, H334R/S2A); test: Kinetic analysis of domain switches, clone w1w2v3; format: biochemical, bacterial isolate LBAA (Pseudomonas strain LBAA); settings: substrate glyphosate
Method: as §1

[4] = target: LBAA glyphosate oxidoreductase variant v1v2w3 (GLY84, ARG153, HIS334) (Ochrobactrum sp. G-1, UniProt D2KI28, K153R/S2A/S84G); test: Kinetic analysis of domain switches, clone v1v2w3; format: biochemical, bacterial isolate LBAA (Pseudomonas strain LBAA); settings: substrate glyphosate
Method: as §1

[5] = target: LBAA glyphosate oxidoreductase variant v1w2v3 (GLY84, LYS153, ARG334) (Ochrobactrum sp. G-1, UniProt D2KI28, H334R/S2A/S84G); test: Kinetic analysis of domain switches, clone v1w2v3; format: biochemical, bacterial isolate LBAA (Pseudomonas strain LBAA); settings: substrate glyphosate
Method: as §1

[6] = target: LBAA glyphosate oxidoreductase variant ARG 334 (His334 to Arg) (Ochrobactrum sp. G-1, UniProt D2KI28, H334R/S2A); test: Kinetic analysis of glyphosate oxidoreductase variant ARG 334 (site-directed mutagenesis); format: biochemical, bacterial isolate LBAA (Pseudomonas strain LBAA)

SMILES: O=C(O)CNCP(=O)(O)O [glyphosate, N-phosphonomethyl-glycine]
- Km [1]: 25 mM
- VmKm [2]: 0.28
- VmKm [3]: 0.375
- VmKm [4]: 0.021
- VmKm [5]: 0.21
- VmKm (Glyp) [6]: .23
